Data reported in patent US6221863A, “3,4-dihydro-2H-benzo[1,4]oxazine derivatives” (American Home Products Corp., priority 1999, dated 2001).
Read-outs that look alike come from different tables or passages of the source.

How the values were obtained:
serotonin transporter = molecular target: T1, serotonin transporter (Rattus norvegicus, UniProt P31652); test: serotonin transporter (ST) binding, 3H-paroxetine displacement in rat frontal cortical membranes; set-up: species or system rat (male Sprague-Dawley)
T1 construct: frontal cortical membranes prepared from male Sprague-Dawley rats; from tissue; host or cells: frontal cortical membranes of male Sprague-Dawley rats
T1 sequence (P31652 whole entry): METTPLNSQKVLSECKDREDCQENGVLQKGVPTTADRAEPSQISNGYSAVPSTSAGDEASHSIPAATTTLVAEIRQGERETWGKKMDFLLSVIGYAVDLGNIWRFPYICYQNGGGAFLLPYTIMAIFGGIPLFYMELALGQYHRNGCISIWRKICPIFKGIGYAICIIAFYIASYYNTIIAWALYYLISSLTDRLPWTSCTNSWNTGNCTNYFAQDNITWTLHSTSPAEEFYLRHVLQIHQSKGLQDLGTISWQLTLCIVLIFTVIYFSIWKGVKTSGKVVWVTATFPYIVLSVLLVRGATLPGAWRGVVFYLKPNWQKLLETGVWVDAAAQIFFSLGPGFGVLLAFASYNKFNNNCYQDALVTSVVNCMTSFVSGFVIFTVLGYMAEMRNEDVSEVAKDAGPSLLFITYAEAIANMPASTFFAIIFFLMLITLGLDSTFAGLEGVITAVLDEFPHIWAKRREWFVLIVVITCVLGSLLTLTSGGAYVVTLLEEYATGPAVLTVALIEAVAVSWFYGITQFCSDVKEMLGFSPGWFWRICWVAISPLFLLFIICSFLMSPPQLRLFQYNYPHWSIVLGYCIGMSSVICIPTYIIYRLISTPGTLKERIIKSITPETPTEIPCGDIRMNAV
Experimental: A protocol similar to that used by Cheetham et al., Neuropharmacol. , 32:737 (1993) was used to determine the affinity of compounds for the serotonin transporter. Briefly, frontal cortical membranes prepared from male Sprague-Dawley rats were incubated with ^3 H-paroxetine (0.1 nM) for 60 min at 25° C. All tubes also contained either vehicle, test compound (one to eight concentrations), or a saturating concentration of fluoxetine (10 μM) to define […]. All reactions were terminated by the addition of ice cold Tris buffer followed by rapid filtration using a Tom Tech filtration device to separate bound from free ^3 H-paroxetine. Bound radioactivity was quantitated using a Wallac 1205 Beta Plate® counter. Nonlinear regression analysis was used to determine IC50 values which were converted to Ki values using the method of Cheng and Prusoff, Biochem. Pharmacol., 22:3099 (1973); Ki=IC50/((Radioligand conc.)/(1+KD)).

human 5-HT1A receptor [1] = molecular target: T2, human 5-HT1A receptor (Homo sapiens, UniProt P08908); test: 5-HT1A receptor binding, [3H]8-OH-DPAT displacement in membranes of CHO cells expressing the human receptor; conditions: 5-HT1A.CHO membranes; for Ki: [3H]8-OH-DPAT 1.5 nM, 30 min, room temperature; for inhibition at 0.1 µM: at .1 μM, [3H]8-OH-DPAT, read-out: 5-HT1A (% Inh. @ .1 μM)
T2 construct: expressed in transfected cells
T2 sequence (P08908 1-422): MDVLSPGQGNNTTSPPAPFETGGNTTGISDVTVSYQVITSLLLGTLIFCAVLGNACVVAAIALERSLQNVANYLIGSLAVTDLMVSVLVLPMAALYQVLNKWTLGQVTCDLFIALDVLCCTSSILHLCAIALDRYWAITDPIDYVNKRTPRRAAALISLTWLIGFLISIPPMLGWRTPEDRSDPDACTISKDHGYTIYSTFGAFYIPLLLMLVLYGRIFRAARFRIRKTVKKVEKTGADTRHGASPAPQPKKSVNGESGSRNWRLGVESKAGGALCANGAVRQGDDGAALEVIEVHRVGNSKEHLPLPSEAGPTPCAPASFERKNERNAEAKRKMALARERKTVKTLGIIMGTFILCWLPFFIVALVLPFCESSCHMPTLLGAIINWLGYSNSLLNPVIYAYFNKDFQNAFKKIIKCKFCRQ
Experimental: (§1) The PCR cloning of the human ^5 -HT1A receptor subtype from a human genomic library has been described previously by Chanda et al., Mol. Pharmacol., 43:516 (1993). A stable Chinese hamster ovary cell line expressing the human S-HT1A receptor subtype (5-HT1A.CHO cells) was employed throughout this study. Cells were maintained in DMEM supplemented with 10% fetal calf serum, non-essential amino acids and penicillin/ streptomycin.
Cells were grown to 95-100% confluency as a monolayer before membranes were harvested for binding studies. Cells were gently scraped from the culture plates, transferred to centrifuge tubes, and washed twice by centrifugation (2000 rpm for 10 min., 4° C.) in buffer (50 mM Tris; pH 7.5). The resulting pellets were aliquoted and placed at -80.C. On the day of assay, the cells were thawed on ice, and resuspended in buffer. Studies were conducted using [^3 H]8-OH-DPAT as the radioligand. The binding assay was performed in 96 well mnicrotiter plates in a final total volume of 250 μL of buffer. Comparison experiments were performed by using 7 concentrations of unlabelled drug and a final ligand concentration of 1.5 nM . Non-specific binding was determined in the presence of 10 μM 5HT. Saturation analysis was conducted by using [^3 H]8-OH-DPAT at concentrations ranging from 0.3-30 nM. Following a 30 minute incubation at room temperature, the reaction was terminated by the addition of ice cold buffer and rapid filtration using a M-96 Brandel Cell Harvester Gaithersburg, Md.) through a GF/B filter presoaked for 30 minutes in 0.5% polyethyleneimine.

human 5-HT1A receptor [2] = molecular target: T2, human 5-HT1A receptor; test: [35S]-GTPγS binding in 5-HT1A cloned receptor membrane fragments; assay type: biochemical; conditions: [35S]GTPγS 1 nM, 30 min, 30° C.; excess 8-OH-DPAT defines maximum agonist response
Description: as §1
The [^35 S]-GTPγS binding assay was similar to that used by Lazareno and Birdsall, Br. J. Pharmacol. 109:1120 (1993). Briefly, 5-HT1A cloned receptor membrane fragments (as used for 5-H1A receptor binding assays) were stored at -70° C. until needed. When needed, membranes were rapidly thawed, centrifuged at 40,000×g for 10 minutes and resuspended at 4° C. for 10 minutes in assay buffer (25 mM HEPES, 3 mM MgCl2, 100 mnM NaCl, 1 mM EDTA, 10 uM GDP, […] DTT, pH 8.0). These membranes were then incubated for 30 min at 30° C. with [^35 S]GTPgS (1 nM) in the presence of vehicle, test compound (one to eight concentrations), or excess 8-OH-DPAT to define maximum agonist response. All reactions are terminated by the addition of ice cold Tris buffer followed by rapid filtration using a Tom Tech® filtration device to separate bound from free [^35 S]GTPgS. Agonists produce an increase in the amount of [^35 S]GTPgS bound whereas antagonists produce no increase in binding. Bound radioactivity was counted and analyzed as above.

[3] = 3H-paroxetine 0.1 nM, 60 min, 25° C., rat frontal cortical membranes, IC50 converted to Ki (Cheng-Prusoff), read-out: ST (Ki)

| SMILES | Ki (serotonin transporter) | Ki (human 5-HT1A receptor [1]) | Emax (human 5-HT1A receptor [2]) | Ki (serotonin transporter; [3]) | inhibition at 0.1 µM (human 5-HT1A receptor [1]) |
| --- | --- | --- | --- | --- | --- |
| COc1cccc2c1OC(CN1CC=C(c3c[nH]c4ccc(F)cc34)CC1)CN2 (centres unmarked) [Example 1, 2-[4-(5-Fluoro-1H-indol-3-yl)-3,6-dihydro-2H-pyridin-1-ylmethyl]-8-methoxy-3,4-dihydro-2H-benzo[1,4]oxazine] | 3.7 nM | 155 nM | 10% |  |  |
| COc1cccc2c1OC(CN1CC=C(c3c[nH]c4ccc(F)cc34)CC1)CN2C (centres unmarked) [Example 2, 2-[4-(5-Fluoro-1H-indol-3-yl)-3,6-dihydro-2H-pyridin-1-ylmethyl]-8-methoxy-4-methyl-3,4-dihydro-2H-benzo[1,4]oxazine] | 8.5 nM | 140 nM | 97% |  |  |
| CCN1CC(CN2CC=C(c3c[nH]c4ccc(F)cc34)CC2)Oc2c(OC)cccc21 (centres unmarked) [Example 3, 2-[4-(5-Fluoro-1H-indol-3-yl)-3,6-dibydro-2H-pyridin-1-ylmetbyl]-8-methoxy-4-ethyl-3,4-dihydro-2H-benzo[1,4]oxazine] | 12 nM | 137 nM | 62% |  |  |
| CCCN1CC(CN2CC=C(c3c[nH]c4ccc(F)cc34)CC2)Oc2c(OC)cccc21 (centres unmarked) [Example 4, 2-[4-(5-Fluoro-1H-indol-3-yl)-3,6-dihydro-2H-pyridin-1-ylmethyl]-8-methoxy-4-propyl-3,4-dihydro-2H-benzo[1,4]oxazine] | 20 nM | 363 nM | 100% |  |  |
| C1=C(c2c[nH]c3ccccc23)CCN(CC2CNc3ccccc3O2)C1 (centres unmarked) [Example 5, 2-[4-(1H-Indol-3-yl)-3,6-dihydro-2H-pyridin-1-ylmethyl]-3,4-dihydro-2H-benzo[1,4]oxazine] |  | 805 nM | 57% | 0.74 nM |  |
| C1=C(c2c[nH]c3ncccc23)CCN(CC2CN(c3ccccc3)c3ccccc3O2)C1 (centres unmarked) [Example 6, 4-Phenyl-2-[4-(1H-pyrrolo[2,3,b]pyridin-3yl)-3,6-dihydro-2H-pyridin-1-ylmethyl]-3,4-dihydro-2H-benzo[1,4]oxazine] | 106 nM |  | 0% |  | 20% |
| COc1cccc2c1OC(CN1CC=C(c3c[nH]c4ccc(F)cc34)CC1)CN2c1ccc(C(F)(F)F)cc1 (centres unmarked) [Example 7, 2-[4-(5-Fluoro-1H-Indol-3-yl)-3,6-dihydro-2H-pyridin-1-ylmethyl]-8-methoxy-4-(4-trifluoromethyl-phenyl)-3,4-dihydro-2H-benzo[1,4]oxazine] |  |  |  | 505 nM | 0% |
